{
  "source": "patent US20220079912A1",
  "about": "“ANTICANCER FORMULATION” (University of Mississippi, priority 2018, published 2022)",
  "key": {"TXNIP protein levels [1]": {"tested_on": "TXNIP protein levels", "experiment": "Western blot of TXNIP protein, MDA-MB-231 cell line", "assay_type": "cell-based, human", "conditions": "FIG. 16, FIG. 18; for TXNIP protein levels, agent alone: GH 8 μM 6 hrs or 3 hrs, 2-DG 25 mM, OXA 25 mM, BPX 25 μM, DCA 25 mM, 6 hr", "excerpt": "(§1) AMPK activation has been previously shown to phosphorylate and cause the degradation of TXNIP during energy stress (13)."}, "TXNIP protein levels [2]": {"tested_on": "TXNIP protein levels", "experiment": "Western blot of TXNIP protein, T98G cell line", "assay_type": "cell-based, human", "conditions": "FIG. 15, FIG. 17; for TXNIP protein levels, agent alone: GH 8 μM 6 hrs or 3 hrs, 2-DG 25 mM, OXA 25 mM, BPX 25 μM, DCA 25 mM, 6 hr", "excerpt": "as §1"}, "T98G cells [3]": {"tested_on": "T98G cells", "experiment": "Glucose transport (2-NBDG accumulation)", "assay_type": "cell-based, human", "conditions": "treated for one hour followed by 2-NBDG for one hour"}, "B16 cells [4]": {"tested_on": "B16 cells", "experiment": "Glucose transport (2-NBDG accumulation)", "assay_type": "cell-based, mouse", "conditions": "B16, treated for one hour followed by 2-NBDG for one hour"}, "MDA-MB-231 cells": {"tested_on": "MDA-MB-231 cells", "experiment": "Glucose transport (2-NBDG accumulation)", "assay_type": "cell-based, human", "conditions": "MDA-MB-231, treated for one hour followed by 2-NBDG for one hour", "excerpt": "Phloretin, a known glucose transport inhibitor, was used as a positive control. Accumulation of 2-NDGB was inhibited by phloretin by 54% in T98G cells, by 31% in B16 cells and by 74% in MDA-MB-231 cells. The first panel for each cell line represents unstained cells, the second stained with 2-NBDG for one hour, the third treated with GH for one hour followed by 2-NBDG for one hour and the fourth treated with phloretin for one hour followed by 2-NBDG for one hour."}, "TXNIP mRNA": {"tested_on": "TXNIP mRNA", "experiment": "Differential gene expression analysis (RNA-Seq) in T98G cells", "assay_type": "cell-based, human", "conditions": "2 hours, GH 8 μM, 2-DG 25 mM, Ph 100, minus = reduced, plus = increase, NC = no change", "excerpt": "(§2) GH inhibits expression of TXNIP and ARRDC4 mRNAs. […] Since the transcription factors (MondoA/Mlx complex) regulating the expression of the TXNIP gene is thought to be controlled by intermediates in the upper portion of the glycolytic pathway (12), GH may be negatively impacting this portion of glycolysis. Reduction in the levels of these intermediates by GH would prevent activation of the MondoA/Mlx transcription complex and would result in suppression of TXNIP transcription and TXNIP mRNA levels. Both of these gene products (TXNIP and ARRDC4) are thought to suppress glucose transport by enhancing degradation of glucose transporters (12)."}, "[5]": {"tested_on": "T98G human glioblastoma cells", "experiment": "Lactic acid accumulation in cell culture medium", "assay_type": "cell-based", "conditions": "three hour period; for inhibition of lactic acid production (accumulation): different concentrations, FIG. 6, FIG. 7", "text": "Acidification of the cell culture medium occurs because of the enhanced use of glycolysis by transformed cells (and resulting increase in lactic acid production). This led us to investigate whether GH reduced lactic acid levels in the cell culture medium."}, "ARRDC4 mRNA": {"tested_on": "ARRDC4 mRNA", "experiment": "Differential gene expression analysis (RNA-Seq) in T98G cells", "assay_type": "cell-based, human", "conditions": "2 hours, GH 8 μM, 2-DG 25 mM, Ph 100, minus = reduced, plus = increase, NC = no change", "excerpt": "as §2"}, "T98G cells [6]": {"tested_on": "T98G cells", "experiment": "Combination cytotoxicity with mitochondrial complex I inhibitors (% cell survival)", "excerpt": "Example 2: Gnetin H In Combination with Mitochondrial Complex I Inhibitors. […] The plus signs above the combination treatment bars indicates the value of % cell survival if the anti-proliferative effect was additive.\nIn FIGS. 9 A-B., the plus signs are placed above the combination treatment bars at the % cell survival value if the anti-proliferative effect was additive. […] Both T98G and MDA-MB-231 cells lack functional p53 but B16 are p53 wild type.\nExample 4: Peony Seed extract. […] T98G cells were treated with different concentrations of purified GH (numbers indicate μM) or PSE (numbers indicate μg/ml) alone or in combination with a Paw Paw (PP) extract (2 μg/ml) for 48 hrs (FIG. 12 A). The plus signs are placed above the combination treatment bars at the % cell survival value if the anti-proliferative effect was additive. […] T98G cells were treated with different concentrations of purified GH or PSE in combination with a Paw Paw extract (2 μg/ml) for 48 hrs (FIG. 12 B)."}, "B16 cells [7]": {"tested_on": "B16 cells", "experiment": "Lactic acid export (intracellular lactic acid levels)", "assay_type": "cell-based, mouse", "conditions": "3 hours, FIG. 4", "description": "To prevent the buildup of lactic acid within the cell a family of monocarboxylate transporters (MCT) functions to transport lactic acid out of the cell (10). To determine if GH inhibits lactic acid export from the cell, and in this manner inhibits the accumulation of lactic acid in the cell culture medium, intracellular lactic acid levels were measured. If GH inhibited lactic acid export, treatment of cells with GH would result in the increase in intracellular lactic acid levels. As a positive control the MCT1 inhibitor AZD3965 was used."}},
  "data": [
    {"smiles": "O=C(O)C(=O)CBr", "note": "[BPX, 3-bromopyruvate]", "values": [
      {"measurement": "TXNIP protein levels, in combination with Ph", "setting": "TXNIP protein levels [1]", "result": "reduced TXNIP protein levels"},
      {"measurement": "TXNIP protein levels, agent alone", "setting": "TXNIP protein levels [1]", "result": "do not substantially reduce TXNIP protein levels"},
      {"measurement": "TXNIP protein levels, in combination with Ph", "setting": "TXNIP protein levels [2]", "result": "reduced TXNIP protein levels"},
      {"measurement": "TXNIP protein levels, agent alone", "setting": "TXNIP protein levels [2]", "result": "do not substantially reduce TXNIP protein levels"}
    ]},
    {"smiles": "O=C(CCc1ccc(O)cc1)c1c(O)cc(O)cc1O", "note": "[phloretin, Phloretin, reference compound]", "values": [
      {"measurement": "inhibition of accumulation of 2-NBDG", "setting": "T98G cells [3]", "result": 54, "unit": "%"},
      {"measurement": "inhibition of accumulation of 2-NBDG", "setting": "B16 cells [4]", "result": 31, "unit": "%"},
      {"measurement": "inhibition of accumulation of 2-NBDG", "setting": "MDA-MB-231 cells", "result": 74, "unit": "%"}
    ]},
    {"smiles": "[H]/N=C(/N)N/C(=N/[H])NCCc1ccccc1", "note": "[Ph, phenformin, reference compound]", "values": [
      {"measurement": "TXNIP mRNA fold change", "setting": "TXNIP mRNA", "result": "−2.5", "unit": "fold"}
    ]},
    {"smiles": "CC(=O)N[C@@H](CS)C(=O)O", "note": "[NAC, n-acetylcysteine]", "values": [
      {"measurement": "inhibition of lactic acid production (accumulation)", "setting": "[5]", "result": "did not inhibit lactic acid production"}
    ]},
    {"smiles": "O=CC[C@@H](O)[C@H](O)[C@H](O)CO", "note": "[2-DG, 2-deoxyglucose]", "values": [
      {"measurement": "ARRDC4 mRNA fold change", "setting": "ARRDC4 mRNA", "result": "+3 fold"},
      {"measurement": "synergistic cytotoxicity in combination with phenformin (Ph) at 100 μM", "setting": "T98G cells [6]", "result": "not synergistically cytotoxic"},
      {"measurement": "TXNIP protein levels, in combination with Ph", "setting": "TXNIP protein levels [1]", "result": "reduction of TXNIP protein levels"},
      {"measurement": "TXNIP protein levels, agent alone", "setting": "TXNIP protein levels [1]", "result": "increased TXNIP protein levels"},
      {"measurement": "TXNIP protein levels, in combination with Ph", "setting": "TXNIP protein levels [2]", "result": "reduction of TXNIP protein levels"},
      {"measurement": "TXNIP protein levels, agent alone", "setting": "TXNIP protein levels [2]", "result": "increased TXNIP protein levels"}
    ]},
    {"smiles": "Cc1[nH]nc(C(F)(F)F)c1Cc1sc2c(c1C(=O)N1C[C@](C)(O)CO1)c(=O)n(C)c(=O)n2C(C)C", "note": "[AZD3965, reference compound]", "values": [
      {"measurement": "accumulation of intracellular lactic acid above control values", "setting": "B16 cells [7]", "result": "~4", "unit": "fold"}
    ]},
    {"smiles": "Oc1ccc(C=Cc2cc(O)cc(O)c2)cc1", "note": "[Res, Resveratrol]", "values": [
      {"measurement": "inhibition of lactic acid production (accumulation)", "setting": "[5]", "result": "did not inhibit lactic acid production"}
    ]},
    {"smiles": "Oc1ccc(/C=C/c2cc(O)cc3c2[C@@H](c2cc(O)cc(O)c2)[C@H](c2ccc(O)cc2)O3)cc1", "note": "(relative stereo) [Vin, trans-ε viniferin, reference compound]", "values": [
      {"measurement": "synergistic cytotoxicity in combination with phenformin (Ph) at 100 μM", "setting": "T98G cells [6]", "result": "did not mimic GH activity"},
      {"measurement": "inhibition of lactic acid production", "setting": "[5]; 40 μM, FIG. 6", "result": 40, "unit": "%"}
    ]}
  ]
}
